Experimental data from US7879342B2, “Vaccine adjuvant and making and using the same” (Univ. of Georgia Research Foundation, Inc., priority 2004, dated 2011).

Tested on: Eimeria tenella
Assay: Protective immunity against Eimeria tenella challenge after in ovo treatment and live coccidiosis vaccine
Type: in vivo, Broiler chicks
Set-up: key to Mean Cecal Score: cecal lesion score per Johnson & Reid (1970); Mean Gain: unit not given here
Conditions: challenged at 28 days
Excerpt: A laboratory strain of Eimeria tenella was used as live coccidiosis vaccine (1000 oocysts per bird), and was given by individual oral gavage to day-old chicks. At 28 days of age, each bird was challenged by inoculation of virulent cecal coccidia (a field isolate of E. tenella with a challenge dose of 100,000 oocysts per bird) or kept as unchallenged controls. Six days post-challenge, birds were euthanized for necropsy and lesion score (see, e.g., Johnson & Reid, 1970, Exper. Parasitol. 28:30-36). Weight gains were calculated. […] Partial protection is not uncommon with coccidiosis vaccines administered in this way in short term challenge experiments. […]

[1] = E10 (10 IU) in ovo, Table 2 second set
[2] = E10 (10 IU) in ovo, Table 2 third set
[3] = E20 (20 IU) in ovo, Table 2 second set
[4] = E20 (20 IU) in ovo, Table 2 third set
[5] = E30 (30 IU) in ovo, Table 2 second set
[6] = E30 (30 IU) in ovo, Table 2 third set

vitamin E was tested, and the “Mean Cecal Score” value [1] was 1.53, the “Mean Gain” value [1] was 361 and the “Mean Cecal Score” value [2] was 1.46. For the same substance, the “Mean Gain” value [2] was 438, the “Mean Cecal Score” value [3] was 1.73 and the “Mean Gain” value [3] was 357. For the same substance, the “Mean Cecal Score” value [4] was 1.21, the “Mean Gain” value [4] was 322 and the “Mean Cecal Score” value [5] was 1.55. The “Mean Gain” value [5] was 388, the “Mean Cecal Score” value [6] was 0.5 and the “Mean Gain” value [6] was 454.
